Results as given in patent US20160361398A1, “METHOD FOR THE TREATMENT OF MULTIPLE SCLEROSIS” (Vereniging voor Christelijk Wetenschappe Onderwijs, priority 2015, published 2016).
No end group written: not given here.

Assays:
[1] = system: MOG-specific effector CD4 T cells from EAE splenocytes; experiment: EAE splenocytes re-stimulated ex vivo with antigen-loaded DCs: [3H]thymidine incorporation; format: cell-based, mouse; settings: after 4 days of culture; EAE scores 1, 2 and 3; FIG. 1F
Experimental: To examine this even further, testing was performed to determine whether DCs exposed to α-2,6-Sia-MOG35-55 were able to inhibit MOG-specific effector T cells that were obtained from splenocytes from mice suffering from experimental autoimmune encephalomyelitis (EAE). To this effect, CD4 effector T cells were harvested from splenocytes of mice at various EAE clinical scores, representing different stages of effector T cell number and activity, wherein score 1 is the onset of disease and score 2 and 3 are the more severe phases of the disease.
Testing was performed to determine whether DCs ex vivo loaded with Sia-MOG could inhibit the proliferation of the MOG-specific effector CD4 T cells that were obtained from EAE mice.
DCs loaded with α-2-6-Sia-MOG35-55 or non-sialylated MOG35-55 were cultured with EAE splenocytes and, after 4 days of culture, [3H]thymidine incorporation was determined as a measure of proliferation and division of CD4 T cells (FIG. 1 F).
(§1) Splenocytes from mice that suffered EAE were re-stimulated ex-vivo with DCs loaded with either non-sialylated MOG or α-2-6-Sia-MOG35-55 and as a control, DC with no antigen. DC and T cells were cultured as described in Example 2, as described above, for 4 days. 3H and IFN-γ was determined as described above.

[2] = system: Th1 and Th17 cells generated from 2D2 CD4 T cells; experiment: Inhibition of effector Th1 and Th17 cells generated from 2D2 T cells, re-stimulated with pulsed DCs; format: cell-based, mouse; settings: supernatant after 24 hours; for secretion of effector cytokine by Th1 cells (IFN-gamma): FIG. 1E left panel; for secretion of effector cytokine by Th17 cells (IL-17): FIG. 1E right panel
Excerpt: As stated hereinbefore, Th1 and Th17 are the effector CD4T cells that cause inflammation in MS. […] This was not observed when these effector cells were co-cultured with DCs loaded with non-sialylated MOG 35-55 (FIG. 1E). Thus, it was concluded that T cells generated in the presence of DCs exposed to α-2,6-Sia-MOG35-55, indeed were functional in that they were able to suppress MOG-specific effector T cells and, therefore, able to dampen ongoing inflammation. It follows that the disclosure may be applied for treating ongoing inflammation, such as the inflammation observed in MS patients, when, at the peak of the disease, auto-reactive, myelin-specific CD4^+ and CD8^+ T cells are involved in the demyelination of the neurons.
(§2) Antigen-specific nave CD4+CD62LhiCD25− T cells were purified from spleen and LN cell suspensions obtained from 2D2 mice using the Dynal mouse CD4+ CD62L+ T cell isolation kit II mouse (Miltenyi Biotec, Bergisch Gladbach, Germany) or by sorting on a MoFlo (DakoCytomation, Glostrup, Denmark). The resulting naïve CD4+ CD62L+CD25− T cell populations were typically 95% pure as assessed by flow cytometry. Naïve CD4+ T cells (5×10^4) were added to wells containing DCs (1×10^4) that were pulsed with indicated concentrations of antigen modified with a sialylated oligosaccharide or native antigen 3 hours prior. After 2 days, 10 U/ml recombinant mouse IL-2 (Invitrogen, Bleijswijk, The Netherlands) was added. T-cell polarization was evaluated on day 6 by intra-cellular staining for Foxp3 and IFN-γ following 5 hours restimulation with phorbol 12-myristate 13-acetate (PMA; […])/ionomycin (Sigma; 500 ng/ml) in the presence of Brefeldin A (Sigma; 5 μg/ml). For inhibition of effector Th1 and Th17 cells, Naïve 2D2 T cells were converted in Th1 or Th17 cells by culturing; one week later, effector T cells re-stimulated with DC pulsed with MOG or Sialylated MOG. After 24 hours, the supernatant was harvested for presence of IFN-γ or IL 17 as measure of activity of Th1 and Th17 effector cells, respectively.

[3] = system: MOG-responsive CD4+ T cells (2D2 T cells); experiment: T helper differentiation: antigen-pulsed DCs co-cultured with naive 2D2 CD4+ T cells, intracellular staining for Foxp3 and IFN-γ; format: cell-based, mouse; settings: cultured six days with 2D2 T cells; for induction of suppressive Foxp3+CD4+ T cells: FIG. 1A; for CD4+ IFN-γ+ MOG effector T cells: FIG. 1B
Excerpt: For that purpose, DC were pulsed with α-2-6-Sia-MOG35-55 and a non-sialylated MOG 35-55 peptide as a control, and cultured for six days with MOG-responsive CD4^+ T cells (2D2 T cells (Bettelli et al., J. Exp. Med., 2003).
as §2

[4] = system: MOG-specific CD4+ (2D2) T-cells; experiment: IFN-γ in culture supernatants of DC / 2D2 T-cell co-cultures; format: cell-based, mouse; settings: 2D2 T cells primed by antigen-loaded DCs; FIG. 1C
Experimental: as §2, with “For inhibition of effector Th1 and Th17 cells, Naïve 2D2 T cells were converted in Th1 or Th17 cells by culturing; one week later, effector T cells re-stimulated with DC pulsed with MOG or Sialylated MOG. After 24 hours, the supernatant was harvested for presence of IFN-γ or IL 17 as measure of activity of Th1 and Th17 effector cells, respectively.” left out
(§3) Cytokine production by T cells and DCs was assessed by cytometric bead arrays using the CBA Th1/2/17 kit and mouse inflammation kit, respectively (BD Biosciences), or by ELISA using specific antibody pairs (eBiosciences) following the manufacturers' instructions.

[5] = system: experimental autoimmune encephalomyelitis; settings: intravenous administration; cited from earlier work
[6] = system: MOG-reactive effector T cells from EAE mice; experiment: EAE splenocytes re-stimulated ex vivo with antigen-loaded DCs: IFN-γ production; format: cell-based, mouse; settings: 4 days of culture; EAE mice with different scoring; FIG. 1G
Experimental: To determine the functionality of the MOG-reactive effector cells, IFN-γ production was measured (FIG. 1G).
as §1, §3

[7] = system: MOG-specific CD4+ T cells; experiment: qRT-PCR of MOG-specific CD4+ T cells isolated on day 6 of co-culture with pulsed DCs; format: cell-based, mouse; settings: for Foxp3 mRNA level (qRT-PCR, normalized to GAPDH): FIG. 1D right panel
Experimental: FIG. 1D: (Left panel) Expression of T-bet, which is a measure for IFN-γ-producing effector CD4 T cells (Th1). (Right panel) Foxp3 mRNA, which is a measure for Treg cells that suppress, were determined using qRT-PCR and subsequently normalized to housekeeping gene GAPDH, which is equal under all conditions.

[8] = system: naive MOG-specific CD4+ T cells (2D2); experiment: Antigen specificity: sia-OVA-loaded DCs challenged with MOG 35-55, co-cultured with 2D2 cells, Foxp3+ CD4+ by flow cytometry; format: cell-based, mouse; settings: loaded DCs subsequently challenged with MOG 35-55
Experimental: (§4) For that purpose, dendritic cells were loaded with sia-OVA and subsequently challenged in the presence of specific CD4+ T cells with either OVA or with a myelin oligodendrocyte glycoprotein peptide (MOG 35-55).
(§5) The thus-loaded dendritic cells were then co-cultured with naive MOG-specific CD4+ T cells (called 2D2) in the presence of MOG 35-55 or with naive OVA-specific CD4+ T cells (called OT-II) in the presence of ovalbumin (OVA).
(§6) Subsequently, it was determined whether sia-OVA-loaded dendritic cells were able to induce tolerogenic T cells in an antigen-specific manner. This was done by determining the percentage of Foxp3+ CD4+ T cells by flow cytometry.

[9] = system: naive OVA-specific CD4+ T cells (OT-II); experiment: Antigen specificity: loaded DCs challenged with OVA, co-cultured with OT-II cells, Foxp3+ CD4+ by flow cytometry; format: cell-based, mouse; settings: for tolerogenic cells (Foxp3+ CD4+ T cells) in a population of OT-II cells: loaded DCs subsequently challenged with OVA
Experimental: as §4, §5, §6

Substance	proliferation of MOG-specific CD4 T cells ([3H]thymidine incorporation) [1]	secretion of effector cytokine by Th1 cells (IFN-gamma) [2]	secretion of effector cytokine by Th17 cells (IL-17) [2]	induction of suppressive Foxp3+CD4+ T cells [3]	CD4+ IFN-γ+ MOG effector T cells [3] [%]	secreted IFN-γ in culture supernatants [4]	IFN-γ production of MOG-reactive effector cells [6]	Foxp3 mRNA level (qRT-PCR, normalized to GAPDH) [7]	tolerogenic cells (Foxp3+ CD4+ T cells) in a population of OT-II cells [9]	further results
MEVGWYRPPFSRVVHLYRNGK [non-sialylated MOG35-55, reference compound]	stimulate the proliferation	not observed	not observed	not induced	3.5	significant amounts	enhance	hardly expressed		effect on experimental autoimmune encephalomyelitis [5]: suppresses; T-bet mRNA level (qRT-PCR, normalized to GAPDH) ([7]; FIG. 1D left panel): higher mRNA levels
α-2-6-Sia-MOG35-55: MOG 35-55 peptide with N-terminal cysteine covalently attached via MPBH linker to 6′-sialyl-N-acetyllactosamine (Neu5Ac(α)2-6Gal(β)1-4GlcNAc) (GPGYPIRALVGDEAELPCRIS; not fully specified (N-terminus); also: N-terminal Cys linked via MPBH to 6'-sialyl-LacNAc (Neu5Ac(α)2-6Gal(β)1-4GlcNAc); UniProt Q61885 35-55, looked up, fragment)	clear reduction of proliferation	significantly reduced	significantly reduced	majority of the CD4 T cells co-express Foxp3	0.3	reduction	suppressed	high levels		
sia-OVA: sia-2,3 and 2,6-conjugated ovalbumin									about 10%	tolerogenic cells (Foxp3+ CD4+ T cells) in a population of 2D2 cells [8]: did not induce tolerogenic cells above background levels
α-2-6-Sia-OVA: OVA coupled to 6′-Sialyl-N-acetyllactosamine (6′-SLN)										immune tolerance against OVA ([9]; DCs exposed to the antigen): capable of inducing immune tolerance against OVA
OVA: ovalbumin, control antigen [reference compound]									did not induce tolerogenic cells above background levels	
